Results taken from US7022695B2, “Thioether-substituted benzamides as inhibitors of Factor Xa” (Millennium Pharmaceuticals, Inc., priority 2003, dated 2006).

Molecular target: T1, human plasma protein factor Xa (Homo sapiens, UniProt P00742)
T1 construct: The human plasma protein factor Xa was purchased from Haematologic Technologies; purchased Haematologic Technologies (Essex Junction, Vt.); host or cells: human plasma
Test: Factor Xa Ki determination (cleavage of chromogenic substrate S-2765)
Format: biochemical
Details: fXa 1 nM, S-2765 200 μM, pH 7.4
Method: Protocol for Assay of Factor Xa Inhibitors
The substrate S-2765 (Z-D-Arg-Gly-Arg-pNA.HCl) was obtained from Diapharma (West Chester, Ohio).
The human plasma protein factor Xa was purchased from Haematologic Technologies (Essex Junction, Vt.).
The assay buffer for this series of assays was: Hepes buffered saline (20 mM Hepes, 150 mM NaCl, 5 mM CaCl2, 0.1% PEG-8000, pH 7.4). In a 96-well microtiter plate, inhibitor was serially diluted in a duplicate set of wells to give a range of final concentrations from 5 pM to 3 μM final. Controls without inhibitor (8 wells) were included. The enzyme, fXa (1 nM final) was added to the wells. The substrate S-2765 (200 μM final) was added and the degree of substrate hydrolysis was measured at 405 nm on a Thermomax plate reader for 5 minutes, using Softmax software. Initial velocities (mOD/min) were analyzed by non-linear least squares regression in the Plate Ki software (BioKin Ltd, Pullman, Wash.)(Literature reference: Kusmic P, et al., “High-throughput screening of enzyme inhibitors: Automatic determination of tight-binding inhibition constants” Anal. Biochemistry 2000, 281:62–67). The model used for fitting the inhibitor dose-response curves was the Morrison equation. An apparent Ki (Ki*) was determined. The overall Ki was calculated using the following equation: […]

T1 sequence (P00742 235-488 limits assumed): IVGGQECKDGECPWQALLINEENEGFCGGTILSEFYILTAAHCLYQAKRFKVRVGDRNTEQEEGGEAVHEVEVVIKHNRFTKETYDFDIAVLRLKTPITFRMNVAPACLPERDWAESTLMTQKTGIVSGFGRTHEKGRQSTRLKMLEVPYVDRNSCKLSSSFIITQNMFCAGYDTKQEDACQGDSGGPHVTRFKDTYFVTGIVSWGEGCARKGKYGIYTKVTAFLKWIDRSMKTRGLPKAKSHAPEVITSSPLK
T1 sequence (P00742 41-179 partner limits assumed): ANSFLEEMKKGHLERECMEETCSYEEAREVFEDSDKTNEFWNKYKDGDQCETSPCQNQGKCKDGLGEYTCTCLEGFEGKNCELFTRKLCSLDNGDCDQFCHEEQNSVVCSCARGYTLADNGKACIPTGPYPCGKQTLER

Row | SMILES | Ki [nM]
1 | CN(C)C(=N)c1ccc(C(=O)Nc2ccc(SCC(=O)N3CCN(C(=O)OC(C)(C)C)CC3)cc2C(=O)Nc2ccc(Cl)cn2)cc1 [Example 3] | < 10
2 | CNC(=O)CSc1ccc(NC(=O)c2ccc(C3=NCCN3C)cc2)c(C(=O)Nc2ccc(Cl)cn2)c1 [Example 7] | < 10
3 | CN(C)CCSc1ccc(NC(=O)c2ccc(C(=N)N(C)C)cc2)c(C(=O)Nc2ccc(Cl)cn2)c1 [Example 9] | < 10

Second part, the molecule after the results:

Row | Ki [nM] | SMILES
4 | < 10 | CN(C)C(=N)c1ccc(C(=O)Nc2ccc(SCC(=O)N(C)C)cc2C(=O)Nc2ccc(Cl)cn2)cc1 [Example 1, N-(5-chloro-2-pyridinyl)-2-(4-N,N-dimethylamidinophenylcarbonyl)amino-5-acetic acid dimethylamide sulfanyl-phenylcarboxamide]
5 | < 10 | CN(C)C(=N)c1ccc(C(=O)Nc2ccc(SCC(=O)N3CCCCC3)cc2C(=O)Nc2ccc(Cl)cn2)cc1 [Example 2]
6 | < 10 | CN1CCN=C1c1ccc(C(=O)Nc2ccc(SCC(N)=O)cc2C(=O)Nc2ccc(Cl)cn2)cc1 [Example 6]
7 | < 10 | CN(C)C(=O)CSc1ccc(NC(=O)c2ccc(C3=NCCN3C)cc2)c(C(=O)Nc2ccc(Cl)cn2)c1 [Example 4]
